Source: patent US10179914B2, “CDC25A inhibitor for the treatment of drug resistant cancer or for the prevention of tumor relapse” (INSERM (INSTITUT NATIONAL DE LA SANTÉ ET DE LA RECHERCHE …, priority 2014, dated 2019)

Test system: FLT3-ITD positive primary AML cells
Experiment: Clonogenic assay, FLT3-ITD positive primary AML cells
Type: cell-based, human
Details: 100 and 200 nM, day 7, semi-solid 5637 conditioned medium
Method: (c) Primary cells from patients were cultured in semi-solid medium to estimate their clonogenic potential as described in the Methods section, in the presence or the absence of IRC-083864 (100 and 200 nM). 6 FLT3-ITD positive (upper panel) and 4 FLT3-wild type (lower panel) AML primary samples were used for these experiments. Leukemic colonies were scored under an inverted microscope at day 7.
Patient samples. Patient AML samples were obtained after informed consent in accordance with the Declaration of Helsinki and stored at the HIMIP collection. According to the French law, HIMIP collection has been declared to the Ministry of Higher Education and Research (DC 2008-307 collection 1) and obtained a transfer agreement (AC 2008-129) after approbation by ethical committees (Comité de Protection des Personnes Sud-Ouest et Outremer II and APHP ethical committee). Clinical and biological annotations of the samples have been declared to the CNIL (Comité National Informatique et Libertés i.e. Data processing and Liberties National Committee). Frozen cells were thawed in IMDM medium with 20% FBS and immediately processed for treatment. All patients were diagnosed at the Department of Hematology of Toulouse University Hospital.
Clonogenic assay. […] Leukemic colonies were then scored under an inverted microscope.

## Cc1nc2c(s1)C(=O)C=C(NCCCN(C)CCCNC1=CC(=O)c3nc(-c4cc(F)ccc4F)oc3C1=O)C2=O [IRC-083864]
  clonogenic potential of FLT3-ITD positive primary cells: significantly reduced
